Experimental data taken from article PMC5577615, “Myticalins: A Novel Multigenic Family of Linear, Cationic Antimicrobial Peptides from Marine Mussels (Mytilus spp.)” (Marine Drugs, 2017).
Where no end group is shown, it is not given here.

Columns and labels:
Format in all cases: cell-based
[1] = test system: Pseudomonas aeruginosa ATCC 27853; assay: MIC, broth microdilution
Description: (§1) The following strains have been used in this study: Escherichia coli ATCC 25922, Staphylococcus aureus ATCC […], Vibrio anguillarum ATCC 43305, Pseudomonas aeruginosa ATCC 27853, Acinetobacter baumannii ATCC 19606, Bacillus subtilis ATCC 6051. Vibrio anguillarum ATCC 43305 was cultivated in tryptic soy broth (TSB, Becton Dickinson, Milan, Italy) implemented with 2% NaCl, all the other strains were grown in Müller-Hinton broth (MH, Becton Dickinson, Milan, Italy).
(§2) The minimum inhibiting concentration (MIC) of each myticalin synthetic peptide was calculated using the broth microdilution method. Briefly, twofold serial dilutions of each peptide were prepared in appropriate growth medium and aliquoted in the wells of a round-bottom microtiter plates (Sarstedt, Nümbrecht, Germany). An overnight culture of each bacterial strain was diluted 1:50 in fresh growth medium and grown to an OD600nm ≈ 0.3. Each well was then inoculated with a standardized inoculum in order to achieve, in a final total volume of 100 μL, a final test concentration of about 5 × 10^5 CFU/mL. The plate was then sealed to minimize evaporation and incubated at 37 °C for 24 h. The day after, the MIC was identified as the lowest concentration of the peptide that impaired any visible bacterial growth.

[2] = test system: Vibrio anguillarum ATCC 43305; assay: MIC, broth microdilution
Description: as §1, §2

[3] = test system: Acinetobacter baumannii ATCC 19606; assay: MIC, broth microdilution
Description: as §1, §2

[4] = test system: Escherichia coli ATCC 25922; assay: MIC, broth microdilution
Description: as §1, §2

[5] = test system: Staphylococcus aureus ATCC 25923; assay: MIC, broth microdilution
Description: as §1, §2

[6] = test system: Bacillus subtilis ATCC 6051; assay: MIC, broth microdilution
Description: as §1, §2

[7] = test system: tested bacterial strains (Gram-positive and Gram-negative); conditions: for antimicrobial activity / spectrum in words: tested Gram-positive and Gram-negative strains
Description: as §1, §2

[8] = Pseudomonas aeruginosa ATCC 27853, Müller-Hinton broth, about 5 × 10^5 CFU/mL, 37 °C, 24 h, mode of four independent experiments
[9] = Vibrio anguillarum ATCC 43305, tryptic soy broth with 2% NaCl, about 5 × 10^5 CFU/mL, 37 °C, 24 h, mode of four independent experiments
[10] = Acinetobacter baumannii ATCC 19606, Müller-Hinton broth, about 5 × 10^5 CFU/mL, 37 °C, 24 h, mode of four independent experiments
[11] = Escherichia coli ATCC 25922, Müller-Hinton broth, about 5 × 10^5 CFU/mL, 37 °C, 24 h, mode of four independent experiments
[12] = Staphylococcus aureus ATCC 25923, Müller-Hinton broth, about 5 × 10^5 CFU/mL, 37 °C, 24 h, mode of four independent experiments
[13] = Bacillus subtilis ATCC 6051, Müller-Hinton broth, about 5 × 10^5 CFU/mL, 37 °C, 24 h, mode of four independent experiments

Row | Substance | Minimal inhibitory concentration (MIC) ([1]; ATCC 27853, 24 h) | Minimal inhibitory concentration (MIC) ([2]; ATCC 43305, 24 h) | Minimal inhibitory concentration (MIC) ([3]; ATCC 19606, 24 h) | Minimal inhibitory concentration (MIC) ([4]; ATCC 25922, 24 h) | Minimal inhibitory concentration (MIC) ([5]; ATCC 25923, 24 h) | Minimal inhibitory concentration (MIC) ([6]; ATCC 6051, 24 h) | antimicrobial activity / spectrum in words [7] | MIC toward all the tested bacterial strains ([7]; 24 h) | Minimal inhibitory concentration (MIC) [1, 8] | Minimal inhibitory concentration (MIC) [2, 9] | Minimal inhibitory concentration (MIC) [3, 10] | Minimal inhibitory concentration (MIC) [4, 11] | Minimal inhibitory concentration (MIC) [5, 12] | Minimal inhibitory concentration (MIC) [6, 13]
1 | RRRRRYRYWRRGLTIQGRPKSLPLNTGD [Myticalin C9] | 8 µM | >32 µM | 2 µM | 4 µM | 2 µM | 4 µM | broad spectrum of activity |  |  |  |  |  |  | 
2 | RRRRRFRRVIRRIRLPKYLTINTE [Myticalin C6] | 32 µM | >32 µM | 2 µM | 4 µM | 8 µM | 32 µM | moderate antimicrobial activity |  |  |  |  |  |  | 
3 | LRWTPTPSYPRYPTRSRGSRWSR-NH2 [Myticalin B1] | >32 µM | >32 µM | 8 µM | 8 to 16 µM | >32 µM | 32 µM | moderate antimicrobial activity |  |  |  |  |  |  | 
4 | WPRFPKPRKPTYPGPTYPGPTWPRPTWRRSATIDTEH [Myticalin D5] | >32 µM | >32 µM | >32 µM | >32 µM | >32 µM | >32 µM |  | > 32 µM |  |  |  |  |  | 
5 | YSWPRMPRIPRLPRYPRYPRYPRWPRWPRQPTIYA-NH2 [Myticalin A5] |  |  |  |  |  |  |  |  | 4 to 8 µM | >32 µM | 4 µM | 2 µM | 8 to 16 µM | 4 µM
6 | YSWPRMPRIPRLPRYPRYPRYPRWPRHPTIYA-NH2 [Myticalin A8] |  |  |  |  |  |  | broad spectrum of activity |  | 8 µM | >32 µM | 1 µM | 1 µM | 16 µM | 4 µM
7 | WGRRWRIRIPRLPRPWPPRPKWPRSATINTDQ [Myticalin D2] | 4 µM | >32 µM | 2 µM | 4 µM | 16 to 32 µM | 2 µM | broad spectrum of activity |  |  |  |  |  |  | 
